Test results as given in EPA's CvTdb concentration-time database.

What was measured:
Rat [1] = assay: concentration in kidney after dosing; details: 3360 h; dosed: Perfluorodecanoic acid; 10 mg/kg; oral; Female; Harlan Sprague Dawley
Rat [2] = assay: concentration in plasma after dosing; details: dosed: Perfluorodecanoic acid, 2 mg/kg, iv, Male, F344
Rat [3] = assay: concentration in kidney after dosing; details: 864 h; dosed: Perfluorodecanoic acid; 10 mg/kg; oral; Female; Harlan Sprague Dawley
Rat [4] = assay: concentration in liver after dosing; details: 3360 h; dosed: Perfluorodecanoic acid; 10 mg/kg; oral; Female; Harlan Sprague Dawley
Rat [5] = assay: concentration in plasma after dosing; details: 10 min; dosed: dichloroacetic acid; 10 mg/kg; iv; Male; F344
Rat [6] = assay: concentration in plasma after dosing; details: 9 h; dosed: Primidone; 130 mg/kg; oral; Male; F344
Rat [7] = assay: concentration in plasma after dosing; details: 0.25 h; dosed: Primidone; 30 mg/kg; oral; Male; F344
Rat [8] = assay: concentration in plasma after dosing; details: 6 h; dosed: Primidone; 80 mg/kg; oral; Female; F344
Rat [9] = assay: concentration in plasma after dosing; details: 12 h; dosed: Primidone; 130 mg/kg; oral; Female; F344
Rat [10] = assay: concentration in plasma after dosing; details: dosed: Wyeth-14643, 2.0 mg/kg, iv, Male, Sprague-Dawley
Rat [11] = assay: concentration in plasma after dosing; details: dosed: Wyeth-14643, 2.0 mg/kg, oral, Male, Sprague-Dawley
Rat [12] = assay: concentration in plasma after dosing; details: 3 h; dosed: Wyeth-14643; 2.0 mg/kg; oral; Male; Sprague-Dawley
Rat [13] = assay: concentration in plasma after dosing; details: dosed: Wyeth-14643, 2.0 mg/kg, oral, Male, Sprague-Dawley; remark: listed apart in the source
rat [14] = assay: concentration in plasma after dosing; details: dosed: trichloroethylene, 600.4 ppm, inhalation, duration: 4 hr, female, Fischer-344
Rat [15] = assay: concentration in plasma after dosing; details: dosed: Fluorotelomer alcohol 8+2, 12 mg/kg, oral, Male, Harlan Sprague Dawley
Rat [16] = assay: concentration in brain after dosing; details: 12 h; dosed: Fluorotelomer alcohol 8+2; 80 mg/kg; oral; Female; Harlan Sprague Dawley
Rat [17] = assay: concentration in plasma after dosing; details: dosed: Fluorotelomer alcohol 8+2, 12 mg/kg, oral, Male, Harlan Sprague Dawley; remark: listed apart in the source
Rat [18] = assay: concentration in plasma after dosing; details: dosed: Fluorotelomer alcohol 8+2, 12 mg/kg, oral, Male, Harlan Sprague Dawley; remark: listed apart in the source
Rat [19] = assay: concentration in heart after dosing; details: 6.667 h; dosed: Thiodiglycolic Acid; 20 mg/kg; iv; Female; Harlan Sprague Dawley
Rat [20] = assay: concentration in plasma after dosing; details: 2 h; dosed: Thiodiglycolic Acid; 20 mg/kg; iv; Female; Harlan Sprague Dawley
Rat [21] = assay: concentration in liver after dosing; details: 2 h; dosed: Thiodiglycolic Acid; 20 mg/kg; iv; Male; Harlan Sprague Dawley
Rat [22] = assay: concentration in thymus after dosing; details: 10 min; dosed: Thiodiglycolic Acid; 20 mg/kg; iv; Female; Harlan Sprague Dawley
Rat [23] = assay: concentration in plasma after dosing; details: 3 h; dosed: Thiodiglycolic Acid; 20 mg/kg; iv; Female; Harlan Sprague Dawley
Rat [24] = assay: concentration in heart after dosing; details: 40 min; dosed: Thiodiglycolic Acid; 20 mg/kg; iv; Female; Harlan Sprague Dawley
Rat [25] = assay: concentration in liver after dosing; details: 40 min; dosed: Thiodiglycolic Acid; 20 mg/kg; iv; Female; Harlan Sprague Dawley
Rat [26] = assay: concentration in thymus after dosing; details: 4 h; dosed: Thiodiglycolic Acid; 20 mg/kg; iv; Female; Harlan Sprague Dawley
Rat [27] = assay: concentration in thymus after dosing; details: 3 h; dosed: Thiodiglycolic Acid; 20 mg/kg; iv; Female; Harlan Sprague Dawley
Rat [28] = assay: concentration in liver after dosing; details: 8 h; dosed: Thiodiglycolic Acid; 20 mg/kg; iv; Female; Harlan Sprague Dawley
Rat [29] = assay: concentration in heart after dosing; details: 5 h; dosed: Bis 2-Chloroethoxy Methane; 20 mg/kg; iv; Male; F344
Rat [30] = assay: concentration in plasma after dosing; details: 2 h; dosed: Bis 2-Chloroethoxy Methane; 20 mg/kg; iv; Male; F344
Rat [31] = assay: concentration in liver after dosing; details: 2 h; dosed: Bis 2-Chloroethoxy Methane; 20 mg/kg; iv; Female; F344
Rat [32] = assay: concentration in plasma after dosing; details: 20 min; dosed: Bis 2-Chloroethoxy Methane; 20 mg/kg; iv; Female; F344
Rat [33] = assay: concentration in heart after dosing; details: 6 h; dosed: Bis 2-Chloroethoxy Methane; 20 mg/kg; iv; Female; F344
Rat [34] = assay: concentration in liver after dosing; details: 40 min; dosed: Bis 2-Chloroethoxy Methane; 20 mg/kg; iv; Male; F344
Rat [35] = assay: concentration in thymus after dosing; details: 40 min; dosed: Bis 2-Chloroethoxy Methane; 20 mg/kg; iv; Male; F344
Rat [36] = assay: concentration in thymus after dosing; details: 10 min; dosed: Bis 2-Chloroethoxy Methane; 20 mg/kg; iv; Male; F344
Rat [37] = assay: concentration in plasma after dosing; details: 0.5 h; dosed: Di-n-butyl phthalate; 100 mg/kg; oral; Male; Sprague-Dawley

`O=C(O)C(F)(F)C(F)(F)C(F)(F)C(F)(F)C(F)(F)C(F)(F)C(F)(F)C(F)(F)C(F)(F)F` [Perfluorodecanoic acid] was tested, and the concentration in kidney (Rat [1]) was 2910 ng/g, the concentration in plasma (Rat [2]; 1 h) was 6890 ng/mL and the concentration in plasma (Rat [2]; 528 h) was 4990 ng/mL. For the same compound, the concentration in plasma (Rat [2]; 3360 h) was 662 ng/mL, the concentration in kidney (Rat [3]) was 18600 ng/g and the concentration in liver (Rat [4]) was 7670 ng/g.
`O=C(O)C(Cl)Cl` [dichloroacetic acid] showed a concentration in plasma (Rat [5]) of 7780 ng/mL.
With `CCC1(c2ccccc2)C(=O)NC(=O)NC1=O` [Phenobarbital] the concentration in plasma (Rat [6]) was 9740 ng/mL, the concentration in plasma (Rat [7]) was 340 ng/mL and the concentration in plasma (Rat [8]) was 1820 ng/mL. It also gave a concentration in plasma (Rat [9]) of 8210 ng/mL.
In the case of `Cc1cccc(Nc2cc(Cl)nc(SCC(=O)O)n2)c1C`, the concentration in plasma (Rat [10]; 5 min) is reported as 1060 ng/mL, the concentration in plasma (Rat [10]; 4 h) is reported as 477 ng/mL and the concentration in plasma (Rat [11]; 0.5 h) is reported as 1230 ng/mL. The concentration in plasma (Rat [11]; 5 h) was 529 ng/mL, the concentration in plasma (Rat [12]) was 382 ng/mL and the concentration in plasma (Rat [13]; 0.25 h) was 912 ng/mL. It also gave a concentration in plasma (Rat [13]; 4 h) of 257 ng/mL.
`O=C(O)C(Cl)(Cl)Cl` [trichloroacetic acid] was tested, and the concentration in plasma (rat [14]; 0.1633 h) was 10200 ng/mL, the concentration in plasma (rat [14]; 0.5306 h) was 11400 ng/mL and the concentration in plasma (rat [14]; 0.898 h) was 11800 ng/mL. It also gave a concentration in plasma (rat [14]; 1.633 h) of 13400 ng/mL, a concentration in plasma (rat [14]; 2.122 h) of 15800 ng/mL and a concentration in plasma (rat [14]; 5.061 h) of 18300 ng/mL. It also gave a concentration in plasma (rat [14]; 21.1 h) of 5730 ng/mL, a concentration in plasma (rat [14]; 29.06 h) of 2750 ng/mL and a concentration in plasma (rat [14]; 46.08 h) of 1150 ng/mL.
`OCCC(F)(F)C(F)(F)C(F)(F)C(F)(F)C(F)(F)C(F)(F)C(F)(F)C(F)(F)F` [Fluorotelomer alcohol 8+2] was tested, and the concentration in plasma (Rat [15]; 0.75 h) was 318 ng/mL, the concentration in plasma (Rat [15]; 12 h) was 6.78 ng/mL and the concentration in brain (Rat [16]) was 571 ng/g. It also gave a concentration in plasma (Rat [17]; 0.25 h) of 253 ng/mL, a concentration in plasma (Rat [17]; 6 h) of 40.7 ng/mL and a concentration in plasma (Rat [18]; 1 h) of 255 ng/mL. For the same compound, the concentration in plasma (Rat [18]; 24 h) was 3.4 ng/mL.
With `O=C(O)CSCC(=O)O` [Thiodiglycolic Acid] the concentration in heart (Rat [19]) was 246 ng/g, the concentration in plasma (Rat [20]) was 1400 ng/mL and the concentration in liver (Rat [21]) was 112000 ng/g. The concentration in thymus (Rat [22]) was 7780 ng/g, the concentration in plasma (Rat [23]) was 535 ng/mL and the concentration in heart (Rat [24]) was 3040 ng/g. It also gave a concentration in liver (Rat [25]) of 10000 ng/g, a concentration in thymus (Rat [26]) of 637 ng/g and a concentration in thymus (Rat [27]) of 2120 ng/g. The concentration in liver (Rat [28]) was 737 ng/g.
`ClCCOCOCCCl` [Bis 2-Chloroethoxy Methane] was tested, and the concentration in heart (Rat [29]) was 54.3 ng/g, the concentration in plasma (Rat [30]) was 282 ng/mL and the concentration in liver (Rat [31]) was 70.7 ng/g. The concentration in plasma (Rat [32]) was 3810 ng/mL, the concentration in heart (Rat [33]) was 33.8 ng/g and the concentration in liver (Rat [34]) was 4070 ng/g. For the same compound, the concentration in thymus (Rat [35]) was 8210 ng/g and the concentration in thymus (Rat [36]) was 34400 ng/g.
Compound `CCCCOC(=O)c1ccccc1C(=O)O` [Mono-n-butyl phthalate] has a concentration in plasma (Rat [37]) of 55900 ng/mL.
